The target of data set [1] is T1, SeviL (Mytilisepta virgata, UniProt A0A646QV53).
T1 construct: This vector directs expression of full-length SeviL carrying a thrombin-cleavable hexa-histidine tag; hexa-histidine tag (thrombin-cleavable; leaves residual GSH before the native Met) (N, cleaved yes); made in house; host or cells: E. coli BL21(DE3)
Particulars: 52 oligosaccharides; cited from earlier work.

Data set [2] deals with T1, SeviL. Nature of the data set: biochemical. The data set is classed as binding. The procedure:
(§1) Experimental details are given in Methods/Isothermal Titration Calorimetry. […] ITC experiments were repeated with the monomer mutant SeviL (Q12R/F126K). […] Errors in Kd for the native protein and monomer were determined from triplicate experiments. To produce a stronger signal and lower noise, further experiments were attempted with the concentrations of the native protein and ligand increased ten-fold. […] Different stereo views of the interaction between protein and ligand are shown in SFigure 11.
(§2) Figure 5 (A) A thermogram produced by injecting 1 mM asialo-GM1 saccharide into 50 μ M SeviL. The experiment was repeated three times, each thermogram being fitted to a one-site model (shown as a black line). Dissociation constants were calculated as weighted averages, and errors were calculated as weighted standard deviations, using the reciprocal chi-square values of each individual fit as weights.
Experiments were performed using a MicroCal iTC200 (GE) instrument. The sample of SeviL (in 50 mM phosphate buffer, pH 6.8, 0.1 M NaCl) was placed in the cell, and equilibrated at 298 K. The selected ligand was dissolved in the same buffer, and injected into the protein sample (with 20 injections of 10 μ L each), allowing the baseline to stabilise between injections. The data were analysed using the manufacturer’s software, assuming a simple single site model, to yield a Kd value and chi-square value from each experiment. […] Asialo-GM1 and GM1b were used at 1 mM concentration, each experiment being repeated three times, and errors were determined as the weighted standard deviation of these three values. Higher concentrations of protein and ligand were used in the case of these longer ligands.

Another data set addresses T2, SeviL (Q12R/F126K) (Mytilisepta virgata, UniProt A0A646QV53, F126K/Q12R).
T2 construct: This vector directs expression of full-length SeviL carrying a thrombin-cleavable hexa-histidine tag; hexa-histidine tag (thrombin-cleavable); made in house; host or cells: E. coli BL21(DE3)
The data set can be described thus: Isothermal titration calorimetry with monomer mutant SeviL (Q12R/F126K). It is filed as binding. Particulars: 1 mM ligand titrated into 50 μM SeviL (Q12R/F126K), one-site model, triplicate. The procedure: as §1, §2
Experiments were performed using a MicroCal iTC200 (GE) instrument. […] The data were analysed using the manufacturer’s software, assuming a simple single site model, to yield a Kd value and chi-square value from each experiment. […] Asialo-GM1 and GM1b were used at 1 mM concentration, each experiment being repeated three times, and errors were determined as the weighted standard deviation of these three values. […]

Data set [3] deals with the molecule itself. The data set can be described thus: AUC; sedimentation velocity, 50,000 rpm, 293 K, 50 mM potassium phosphate pH 6.8, 0.1 M NaCl, absorbance at 280 nm, c(s)/c(M) analysis with SEDFIT; sample concentration printed as 1.0 ug/ml.
Data set [4] has as its system trypsinised and glutaraldehyde-fixed rabbit erythrocytes. Nature of the data set: Hemagglutination assay. It is filed as cell-based. Conditions: 10 mM CaCl2, 0.25% Triton X-100, 1 h room temperature. The procedure: Figure 6 Hemagglutination of red blood cells by SeviL. 20 μ L of a two-fold dilution of SeviL (initially 10 mg/mL) were serially diluted and added to the same volume of a red cell suspension containing 0.25% Triton-X100 and 10 mM calcium chloride, and incubated for 1 h at room temperature. Appearance of a dot indicates no agglutination. The number over the wells indicates the protein dilution factor. Top row: dimer SeviL, middle row: dimer SeviL (D39H), and bottom row: monomer SeviL (Q12R/F126K). Column C is a negative control with no added lectin.
Hemagglutination assay was performed in 96-well U-shape plates as described previously. 20 μ L each protein (10 μ g/ml) in TBS was mixed with 20 μ L of a 1% suspension (with TBS; v/v) of trypsinised and glutaraldehyde-fixed rabbit erythrocytes in addition to 20 μ L of TBS containing 0.25% (w/v) Triton X-100 and 10 mM CaCl2. The plate was incubated at room temperature for 1 h, and the formation of a sheet (agglutination-positive) or dot (agglutination-negative) was observed and scored against the lectin titre.

The subject of data set [5] is mammalian carcinoma cells expressing asialo-GM1. On the set-up: method as in PMID 31769916. Conditions: cited from earlier work.
The next data set relates to human red cells. On the set-up: method as in PMID 31769916. Particulars: in the presence of calcium; cited from earlier work.

By Kd is commonly meant the constant that tells how readily two partners part at equilibrium. For orientation: stoichiometry N means the number of molecules, sites or subunits per partner or assembly.

Substitutions are numbered along the chain they refer to. In names and notes the source's numbering stands. Read-outs that look alike come from different tables or passages of the source.

T2 sequence (A0A646QV53 whole entry Q12R/F126K): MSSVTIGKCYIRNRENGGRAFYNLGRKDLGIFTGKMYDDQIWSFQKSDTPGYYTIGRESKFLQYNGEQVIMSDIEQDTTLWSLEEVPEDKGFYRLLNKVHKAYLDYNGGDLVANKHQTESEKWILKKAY

On to `CC(=O)NC1C(O)CC(OC2C(O)C(CO)OC(OC3C(O)C(CO)OC(OC4C(O)C(CO)OC(OC5C(CO)OC(OC6C(CO)OC(O)C(O)C6O)C(O)C5O)C4O)C3NC(C)=O)C2O)(C(=O)O)OC1C(O)C(O)CO` (stereo not drawn) [SSEA-4, Neu5Ac α (2-3)Gal β (1-3)GalNAc β (1-3)Gal α (1-4)Gal β (1-4)Glc], for which, on SeviL [1], the “binding in glycan array” value is on record as “weak binding”.
Regarding `OC[C@H]1O[C@@H](O[C@H]2[C@H](O)[C@@H](O)C(O)O[C@@H]2CO)[C@H](O)[C@@H](O)[C@H]1O` (mixture of isomers) [lactose], the Kd on SeviL [2] fell in the range of 8000 to 12000 µM.
Regarding `CC(=O)N[C@H]1[C@H](O[C@@H]2[C@H](O)[C@@H](O)[C@H](O[C@H]3[C@H](O)[C@@H](O)C(O)O[C@@H]3CO)O[C@@H]2CO)O[C@H](CO)[C@H](O)[C@@H]1O[C@@H]1O[C@H](CO)[C@H](O)[C@H](O)[C@H]1O` (stereo partly drawn) [asialo-GM1, Gal β (1-3)GalNAc β (1-4)Gal β (1-4)Glc], the Kd was 100 µM on SeviL [2] (1 mM ligand injected into 50 μM SeviL, 298 K, pH 6.8, one-site model, triplicate, weighted average, read-out: Kd); about 100 µM at SeviL [2] (protein and ligand concentrations increased ten-fold (1 mM SeviL/10 mM asialo-GM1; 0.8 mM SeviL/12 mM GM1b), model of non-interacting sites, read-out: Kd (exothermic and endothermic binding site, each)); 100 µM on SeviL (Q12R/F126K). In addition, the “binding in glycan array” value at SeviL [1] was “bind”.
As to `OC[C@H]1OC(O)[C@H](O)[C@@H](O)[C@@H]1O` (stereo partly drawn) [Glucose], the “interaction with the protein (ITC)” value at SeviL [2] (small sugar ligand) was “not seen to interact with the protein at all”.

B1: SeviL (natural protein, Mytilisepta virgata)
chain: MSSVTIGKCYIQNRENGGRAFYNLGRKDLGIFTGKMYDDQIWSFQKSDTPGYYTIGRESKFLQYNGEQVIMSDIEQDTTLWSLEEVPEDKGFYRLLNKVHKAYLDYNGGDLVANKHQTESEKWILFKAY
notes: some N-terminal residues remain after removal of the histidine tag by thrombin; also called recombinant SeviL; wild-type SeviL; source: recombinant, expressed in bacteria, purified (details in Supplementary Information); not shown: histidine tag, N-terminal, cleaved
As for B1, the “stoichiometry N” value in data set [3] amounted to 2.

B2: SeviL (Q12R/F126K): SeviL double mutant at the dimer interface, almost entirely monomeric, retains sugar binding (protein)
chain: B1 chain with Q12R, F126K
modifications: left off: histidine tag, N-terminal, cleaved
Consider B2, for which the hemagglutination entry in data set [4] is on record as “Hemagglutination is also lost”.

B3: SeviL: recombinant 129 residue dimeric β-trefoil R-type lectin from the mussel Mytilisepta virgata (protein)
chain: B1 chain
modifications: left off: histidine tag, N-terminal, cleaved
notes: recombinant 129 residue dimeric β-trefoil R-type lectin from the mussel Mytilisepta virgata
Take B3: the figures for the hemagglutination entry (in data set [4]; in the data set on human red cells) were “can trigger hemagglutination at low concentration” and “cause hemagglutination”, respectively. Also, the “effect on carcinoma cells” value in data set [5] was “activates apoptotic pathways, causing cell death”.

Source of the values: paper PMC7744527, “The structure of SeviL, a GM1b/asialo-GM1 binding R-type lectin from the mussel Mytilisepta virgata” (Scientific Reports, 2020).
